Columns and labels:
[1] = target: Eng195 M2-S31 CD peptide (aa 18-60) (Influenza A virus, UniProt P06821, A27V/L43T/N31S); format: biochemical, Influenza A/England/195/2009 (H1N1)
[2] = target: Eng195 M2-N31 CD peptide (aa 18-60) (Influenza A virus, UniProt P06821, A27V/L43T); format: biochemical, Influenza A/England/195/2009 (H1N1)
[3] = target: Eng195 M2-N31 TM peptide (aa 18-46) (Influenza A virus, UniProt P06821, A27V/L43T); format: biochemical, Influenza A/England/195/2009 (H1N1)
M2-N31 TM peptides = M2-N31 TM peptides (Influenza A virus, UniProt P06821, A27V/L43T); format: biochemical, Influenza A/England/195/2009 (H1N1)
Eng195 in MDCK culture = format: cell-based, influenza A virus
[4] = target: M2-N31 CD peptide channels (Influenza A virus, UniProt P06821, A27V/L43T); format: biochemical, Influenza A/England/195/2009 (H1N1)
M2-S31N (H3N2 Udorn) = conditions: read-out: IC50 in two-electrode voltage clamp assay; cited from earlier work
[5] = tested on: E195 engineered to express M2-S31; format: cell-based, influenza A virus

CCN1CCC(NC2C3CC4CC(C3)CC2C4)CC1 (stereo not shown) [E]
effect on M2-S31 CD peptide channel activity [1]: no activity
effect on M2-N31 CD peptide channel activity [2]: no activity

c1csc(-c2cc(CNC34CC5CC(CC(C5)C3)C4)no2)c1 [M2WJ332, (3S,5S,7S)-N-{[5-(thiophen-2-yl)-1,2-oxazol-3-yl]methyl}tricycle[3.3.1.1~3,7~]decan-1-aminium, reference compound]
% M2 activity (40 µM) N31 TM [3]: 100%
effect on M2-N31 TM peptide channel activity [3]: no TM-specific activity
% M2 activity (40 µM) S31 CD [1]: 85%
% M2 activity (40 µM) N31 CD [2]: 58.4%
effect on M2-N31 CD peptide channel activity [2]: blocked the activity
inhibition of channel activity of the N31 CD peptide [2]: ~ 40%
effect on TM peptide activity in bilayer (M2-N31 TM peptides): modest effect
inhibition of M2-N31 TM peptide channels in bilayer (M2-N31 TM peptides): retained channel activity
inhibitor concentration under which virus could be expanded from plaques (Eng195 in MDCK culture): 80 µM
plaques retained by selected supernatants (Eng195 in MDCK culture): ~ 30 % of DMSO control
time for cytopathic effects (CPE) to manifest on plaque expansion (Eng195 in MDCK culture): ≤ 24 h
effect on CD peptide activity in bilayer [4]: abrogate activity
inhibition of M2-N31 CD peptide channels in bilayer [4]: sensitive to nanomolar concentrations
IC50 (M2-S31N (H3N2 Udorn)): 16 µM

COc1ccccc1NC(=S)NC(=O)c1cc2ccccc2cc1OC [L1.1]
antiviral effect versus E195 with M2-S31 (N31S) [5]: active
% M2 activity (40 µM) N31 TM [3]: 22.0%
% M2 activity (40 µM) S31 CD [1]: 41.8%
% M2 activity (40 µM) N31 CD [2]: 32.8%
inhibition of M2-N31 TM peptide channels in bilayer (M2-N31 TM peptides): inhibited TM peptides
inhibitor concentration under which virus could be expanded from plaques (Eng195 in MDCK culture): ≤ 20 µM
time for cytopathic effects (CPE) to manifest on plaque expansion (Eng195 in MDCK culture): at least 48 h

Cc1ncc(C23CC4CC(CC(C4)C2)C3)[nH]1 [H]
effect on M2-S31 CD peptide channel activity [1]: inhibited
effect on M2-N31 CD peptide channel activity [2]: inhibited

CC(N)C12CC3CC(CC(C3)C1)C2 (racemic) [rimantadine, (RS)-1-(1-adamantyl)ethanamine, reference compound]
effect on M2-S31 CD peptide channel activity [1]: blocked activity
inhibition of channel activity of M2-WT (S31) [1]: 50%
effect on M2-N31 CD peptide channel activity [2]: only blocked activity of Eng195 M2-S31 peptides
inhibitor concentration under which virus could be expanded from plaques (Eng195 in MDCK culture): 80 µM
time for cytopathic effects (CPE) to manifest on plaque expansion (Eng195 in MDCK culture): ≤ 24 h

OC(CN1CCCC1)C12CC3CC(CC(C3)C1)C2 (stereo not shown) [G]
effect on M2-S31 CD peptide channel activity [1]: no activity
effect on M2-N31 CD peptide channel activity [2]: no activity

OCCNC12CC3CC(CC(C3)C1)C2 [J]
effect on M2-S31 CD peptide channel activity [1]: inhibited
effect on M2-N31 CD peptide channel activity [2]: inhibited

c1cc2nc(C34CC5CC(CC(C5)C3)C4)[nH]c2cn1 [D]
effect on M2-S31 CD peptide channel activity [1]: inhibited
effect on M2-N31 CD peptide channel activity [2]: inhibited

CN1CCN(C(=O)c2ccc3ccccc3c2)CC1 [B]
antiviral effect versus E195 with M2-S31 (N31S) [5]: neither B nor K exhibited antiviral effects
effect on M2-S31 CD peptide channel activity [1]: activity versus M2-S31
effect on M2-N31 CD peptide channel activity [2]: not N31

O=C(Nc1nnc[nH]1)c1cc2ccccc2o1 [K]
antiviral effect versus E195 with M2-S31 (N31S) [5]: neither B nor K exhibited antiviral effects
effect on M2-S31 CD peptide channel activity [1]: activity versus M2-S31
effect on M2-N31 CD peptide channel activity [2]: not N31

CCCCCCCCCN1C[C@H](O)[C@@H](O)[C@H](O)[C@H]1CO [NNDNJ, reference compound]
effect on M2-S31 CD peptide channel activity [1]: blocked the activity
effect on M2-N31 CD peptide channel activity [2]: blocked the activity

Nc1nc(-c2cc3c(cc2Cl)OCCO3)cs1 [L]
effect on M2-S31 CD peptide channel activity [1]: inactive
effect on M2-N31 CD peptide channel activity [2]: inactive

Cc1c2ccccc2n2cc(-c3ccccc3)nc(C(C)C)c12 [DL7]
% M2 activity (40 µM) N31 TM [3]: 15.0%
% M2 activity (40 µM) S31 CD [1]: 31.3%
% M2 activity (40 µM) N31 CD [2]: 19.5%

Cc1ccc2nc(Oc3ccccc3)ccc2c1 [DP9]
% M2 activity (40 µM) N31 TM [3]: 100%
% M2 activity (40 µM) S31 CD [1]: 97.4%
% M2 activity (40 µM) N31 CD [2]: 65.8%

— PMC7418971 (PLoS Pathogens, 2020)
